{
  "source": "ChEMBL document CHEMBL3046034",
  "about": "“Enzyme inhibitors to increase poly-3-hydroxybutyrate production by transgenic tobacco” (2002)",
  "key": {"Nicotiana tabacum [1]": {"test_system": "Nicotiana tabacum", "assay": "Increase of poly-3-hydroxybutyrate production in rCAB8 transgenic Nicotiana tabacum (tobacco) plastids at 0.1 to 10 uM sprayed on five-leaf stage plant once in a week measured after 2 weeks relative to control", "assay_type": "functional, organism-based"}, "Nicotiana tabacum [2]": {"test_system": "Nicotiana tabacum", "assay": "Increase of poly-3-hydroxybutyrate production in BC3 transgenic Nicotiana tabacum (tobacco) plastids at 10 uM sprayed on five-leaf stage plant once in a week measured after 2 weeks relative to control", "assay_type": "functional, organism-based"}, "Nicotiana tabacum [3]": {"test_system": "Nicotiana tabacum", "assay": "Increase of poly-3-hydroxybutyrate production in BC3 transgenic Nicotiana tabacum (tobacco) plastids at 1 uM sprayed on five-leaf stage plant once in a week measured after 2 weeks relative to control", "assay_type": "functional"}, "Nicotiana tabacum [4]": {"test_system": "Nicotiana tabacum", "assay": "Increase of poly-3-hydroxybutyrate production in BC3 transgenic Nicotiana tabacum (tobacco) at 10 uM sprayed on five leaf stage plant once in a week measured after 2 weeks relative to control", "assay_type": "functional"}, "Nicotiana tabacum [5]": {"test_system": "Nicotiana tabacum", "assay": "Increase of poly-3-hydroxybutyrate production in rCAB8 transgenic Nicotiana tabacum (tobacco) plastids at 50 uM sprayed on five-leaf stage plant once in a week measured after 2 weeks relative to cytosol", "assay_type": "functional"}, "Nicotiana tabacum [6]": {"test_system": "Nicotiana tabacum", "assay": "Increase of PHA synthase level in BC3 transgenic Nicotiana tabacum (tobacco) at 10 uM sprayed on five leaf stage plant once in a week measured after 2 weeks by immunoblot analysis", "assay_type": "functional, organism-based"}, "Nicotiana tabacum [7]": {"test_system": "Nicotiana tabacum", "assay": "Increase of leaf dry weight in BC3 transgenic Nicotiana tabacum (tobacco) at 10 uM sprayed on five leaf stage plant once in a week measured after 1 week", "assay_type": "functional, organism-based"}, "Nicotiana tabacum [8]": {"test_system": "Nicotiana tabacum", "assay": "Increase of poly-3-hydroxybutyrate production in BC3 transgenic Nicotiana tabacum (tobacco) at 2 to 50 uM sprayed on five-leaf stage plant once in a week measured after 2 weeks relative to control", "assay_type": "functional"}, "Nicotiana tabacum [9]": {"test_system": "Nicotiana tabacum", "assay": "Increase of leaf dry weight in rCAB8 transgenic Nicotiana tabacum (tobacco) at 10 to 250 uM sprayed on five leaf stage plant once in a week measured after 2 weeks", "assay_type": "functional, organism-based"}, "Nicotiana tabacum [10]": {"test_system": "Nicotiana tabacum", "assay": "Increase of poly-3-hydroxybutyrate production in rCAB8 transgenic Nicotiana tabacum (tobacco) at 50 uM sprayed on five-leaf stage plant once in a week measured after 2 weeks relative to control", "assay_type": "functional"}, "Nicotiana tabacum [11]": {"test_system": "Nicotiana tabacum", "assay": "Increase of poly-3-hydroxybutyrate production in BC3 transgenic Nicotiana tabacum (tobacco) at 10 uM sprayed on five-leaf stage plant once in a week measured after 1 week relative to control", "assay_type": "functional"}, "Nicotiana tabacum [12]": {"test_system": "Nicotiana tabacum", "assay": "Increase of poly-3-hydroxybutyrate production in BC3 transgenic Nicotiana tabacum (tobacco) plastids at 10 uM sprayed on five-leaf stage plant once in a week measured after 2 weeks relative to cytosol", "assay_type": "functional"}, "Nicotiana tabacum [13]": {"test_system": "Nicotiana tabacum", "assay": "Increase of poly-3-hydroxybutyrate production in rCAB8 transgenic Nicotiana tabacum (tobacco) at 50 uM sprayed on five-leaf stage plant once in a week measured after 1 week relative to control", "assay_type": "functional"}, "Nicotiana tabacum [14]": {"test_system": "Nicotiana tabacum", "assay": "Increase of leaf dry weight in BC3 transgenic Nicotiana tabacum (tobacco) sprayed on five-leaf stage plant once in a week measured after 2 weeks", "assay_type": "functional, organism-based"}, "Nicotiana tabacum [15]": {"test_system": "Nicotiana tabacum", "assay": "Increase of PHA synthase level in rCAB8 transgenic Nicotiana tabacum (tobacco) at 50 uM sprayed on five leaf stage plant once in a week measured after 2 weeks by immunoblot analysis", "assay_type": "functional, organism-based"}},
  "note": "Activity calls are given as the source filed them. No cut-off for these calls is given here.",
  "data": [
    {"smiles": "CC[C@H](C)C(=O)O[C@H]1CCC=C2C=C[C@H](C)[C@H](CC[C@@H]3C[C@@H](O)CC(=O)O3)[C@H]21", "note": "[MEVASTATIN]", "values": [
      {"measurement": "Activity", "setting": "Nicotiana tabacum [1]", "value": "Active"},
      {"measurement": "Activity", "setting": "Nicotiana tabacum [2]", "value": "inactive"},
      {"measurement": "Activity", "setting": "Nicotiana tabacum [3]", "value": 192, "unit": "%"}
    ]},
    {"smiles": "CC(Oc1ccc(Oc2cnc3cc(Cl)ccc3n2)cc1)C(=O)O", "note": "(stereo not given) [QUIZALOFOP]", "values": [
      {"measurement": "Activity", "setting": "Nicotiana tabacum [4]", "value": 170, "unit": "%"},
      {"measurement": "fold change (FC)", "setting": "Nicotiana tabacum [5]", "value": 2.5},
      {"measurement": "Activity", "setting": "Nicotiana tabacum [6]", "value": "Active"},
      {"measurement": "Activity", "setting": "Nicotiana tabacum [7]", "value": "Active"},
      {"measurement": "Activity", "setting": "Nicotiana tabacum [8]", "value": 170, "unit": "%"},
      {"measurement": "Activity", "setting": "Nicotiana tabacum [9]", "value": "Active"},
      {"measurement": "Activity", "setting": "Nicotiana tabacum [10]", "value": 150, "unit": "%"},
      {"measurement": "Activity", "setting": "Nicotiana tabacum [11]", "value": 150, "unit": "%"},
      {"measurement": "fold change (FC)", "setting": "Nicotiana tabacum [12]", "value": 2.5},
      {"measurement": "Activity", "setting": "Nicotiana tabacum [13]", "value": 120, "unit": "%"},
      {"measurement": "Activity", "setting": "Nicotiana tabacum [14]", "value": "Dose-dependent effect"},
      {"measurement": "Activity", "setting": "Nicotiana tabacum [15]", "value": "Active"}
    ]}
  ]
}
